Measurements reported in US20240389591A1, “CRYSTALLINE FORMS OF METHYL 2-[2-[2-BROMO-4-FLUORO-5-[3-METHYL-2,6-DIOXO-4-(TRIFLUOROMETHYL)PYRIMIDIN-1-YL]PHENOXY]PHENOXY]-2-METHOXY-ACETATE” (BASF SE, priority 2021, published 2024).

Assays:
Lolium multiflorum = assay: Greenhouse herbicidal activity, post-emergence treatment; format: in vivo; details: assessment 20 DAT, aqueous SC 8.33 w/v %, scale 0-100
Text: (§1) The culture containers used were plastic flowerpots containing loamy sand with approximately 3.0% of humus as the substrate. The seeds of the test plants were sown separately for each species.
(§2) For the post-emergence treatment, the test plants were first grown to a height of 3 to 15 cm, depending on the plant habit, and only then treated with the active ingredients which had been suspended or emulsified in water. For this purpose, the test plants were either sown directly and grown in the same containers, or they were first grown separately as seedlings and transplanted into the test containers a few days prior to treatment.
(§3) Depending on the species, the test plants were kept at 10-25° C. or 20-35° C., respectively. The test period extended over 2 to 4 weeks. During this time, the test plants were tended, and their response to the individual treatments was evaluated.
(§4) Evaluation was carried out using a scale from 0 to 100. 100 means no emergence of the test plants, or complete destruction of at least the aerial moieties, and 0 means no damage, or normal course of growth. A good herbicidal activity is given at values of at least 70 and a very good herbicidal activity is given at values of at least 85.
(§5) The abovementioned methods were used to compare, in a greenhouse test, form A according to the invention and, as comparison the compound of formula (I) in amorphous form, in each case formulated as aqueous suspension concentrate (SC; 8.33 w/v %).

Erigeron canadensis = assay: as above; format: in vivo; details: assessment 20 DAT, aqueous SC 8.33 w/v %, scale 0-100
Text: as §1, §2, §3, §4, §5

Row | Structure (SMILES) | Damage [%] (Lolium multiflorum; 2 g/ha a.i.) | Damage [%] (Lolium multiflorum; 4 g/ha a.i.) | Damage [%] (Lolium multiflorum; 8 g/ha a.i.) | Damage [%] (Lolium multiflorum; 16 g/ha a.i.) | Damage [%] (Erigeron canadensis; 2 g/ha a.i.) | Damage [%] (Erigeron canadensis; 4 g/ha a.i.)
1 | COC(=O)C(OC)Oc1ccccc1Oc1cc(-n2c(=O)cc(C(F)(F)F)n(C)c2=O)c(F)cc1Br (stereo not drawn) [Form A, methyl 2-[2-[2-bromo-4-fluoro-5-[3-methyl-2,6-dioxo-4-(trifluoromethyl)pyrimidin-1-yl]phenoxy]phenoxy]-2-methoxy-acetate] | 50% | 70% | 90% | 90% | 60% | 100%
2 | COC(=O)C(OC)Oc1ccccc1Oc1cc(-n2c(=O)cc(C(F)(F)F)n(C)c2=O)c(F)cc1Br (stereo not drawn) [amorphous, methyl 2-[2-[2-bromo-4-fluoro-5-[3-methyl-2,6-dioxo-4-(trifluoromethyl)pyrimidin-1-yl]phenoxy]phenoxy]-2-methoxy-acetate] | 15% | 25% | 75% | 80% | 30% | 70%
